For 25 compounds, IC50 results are on record in patent publication US20230339970A1, “CASEIN KINASE 1 DELTA MODULATORS” (priority 2020, published 2023).

The target of one experiment is T1, human CSNK1D (Homo sapiens, UniProt P48730).
T1 construct: expressed in transfected cells
The experiment can be described thus: Whole Cell nBRET CSNK1D Binding Assay. To be noted: living CHO cells stably expressing human CSNK1D tagged with nanoluciferase; NanoBret tracer 130 nM; 2 hours at 37 C.

The target in experiment [1] is T2, human recombinant GST cleaved CSNK1D (Homo sapiens, UniProt P48730).
T2 construct: GST (cleaved yes); purchased University of Dundee clone DU 19064
T2 sequence (P48730 whole entry): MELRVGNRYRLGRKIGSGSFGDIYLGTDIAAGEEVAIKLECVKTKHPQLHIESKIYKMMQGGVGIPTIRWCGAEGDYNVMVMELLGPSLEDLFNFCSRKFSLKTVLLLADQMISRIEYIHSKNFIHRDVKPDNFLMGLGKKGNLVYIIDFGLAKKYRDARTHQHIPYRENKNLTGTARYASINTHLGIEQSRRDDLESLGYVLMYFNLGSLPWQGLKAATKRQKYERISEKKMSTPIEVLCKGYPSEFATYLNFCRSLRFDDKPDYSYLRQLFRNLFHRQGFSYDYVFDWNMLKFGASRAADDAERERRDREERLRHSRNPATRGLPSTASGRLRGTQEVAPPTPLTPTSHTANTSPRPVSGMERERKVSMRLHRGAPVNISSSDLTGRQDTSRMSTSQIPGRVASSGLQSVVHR
The experiment in a line: Purified Enzyme Assay (ADP-Glo CSNK1D Kinase Assay). The class given is biochemical. To be noted: 2 nM CSNK1D; peptide substrate 150 μM; ATP 20 μM; 45 minutes at room temperature. An outline of the steps:
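GST-cleaved human recombinant CSNK1D phosphorylates peptide PLSRTL-pS-VASLPGL with ATP; compounds added in dose-response, 45 min at room temperature. ADP formed measured by ADP-Glo luminescence and converted to percent activity.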
(In general: ADP-Glo turns the ADP formed in a reaction into a luminescent signal.)

T1 sequence (P48730 whole entry): as above

Usually IC50 stands for the midpoint of a concentration-inhibition curve. In the case of `Fc1ccc(-c2nn3c(c2-c2ccnc4[nH]ncc24)C2CC2C3)cc1` (racemic) [Example 275, (Racemic) 2-(4-Fluorophenyl)-3-(1H-pyrazolo[3,4-b]pyridin-4-yl)-3b,4,4a,5-tetrahydrocyclopropa[3,4]pyrrolo[1,2-b]pyrazole], the IC50 at human CSNK1D amounted to 0.009 µM; in experiment [1], 0.001 µM.

`Cc1cc(-c2c(-c3ccc(F)cc3)nn3c2[C@@H]2CC[C@H]3C2)c2cn[nH]c2n1` (single isomer, unassigned) [Example 364, (4*R,7*S)-2-(4-Fluorophenyl)-3-(6-methyl-1H-pyrazolo[3,4-b]pyridin-4-yl)-4,5,6,7-tetrahydro-4,7-methanopyrazolo[1,5-a]pyridine]: the IC50 at human CSNK1D came out at 0.102 µM; in experiment [1], 0.005 µM.

On to `[2H]C([2H])([2H])C1(C([2H])([2H])[2H])Cn2nc(-c3ccc(F)cn3)c(-c3cc(C)nc4[nH]ncc34)c2CO1` [Example 401, 2-(5-Fluoropyridin-2-yl)-6,6-bis(methyl-d3)-3-(6-methyl-1H-pyrazolo[3,4-b]pyridin-4-yl)-6,7-dihydro-4H-pyrazolo[5,1-c][1,4]oxazine], for which the IC50 on human CSNK1D was determined as 0.043 µM; in experiment [1], 0.004 µM.

As to `COc1cnccc1-c1c(-c2ccc(F)cn2)nn2c1COC(C)(C)C2` [Example 130, 2-(5-Fluoropyridin-2-yl)-3-(3-methoxypyridin-4-yl)-6,6-dimethyl-6,7-dihydro-4H-pyrazolo[5,1-c][1,4]oxazine], the IC50 was determined as 0.624 µM on human CSNK1D and 0.031 µM in experiment [1].

For the compound `CCn1ncc2cc(-c3c(-c4ccc(F)cn4)nn4c3OCCC4)cnc21` [Example 441, 3-(1-Ethyl-1H-pyrazolo[3,4-b]pyridin-5-yl)-2-(5-fluoropyridin-2-yl)-6,7-dihydro-5H-pyrazolo[5,1-b][1,3]oxazine], the IC50 at human CSNK1D came to 1.87 µM; in experiment [1], 0.044 µM.

As to `Cc1nc(-c2c(-c3ccc(F)cc3)nn3c2COC(C)(C)C3)c2cn[nH]c2n1` [Example 394, 2-(4-Fluorophenyl)-6,6-dimethyl-3-(6-methyl-1H-pyrazolo[3,4-d]pyrimidin-4-yl)-4,7-dihydropyrazolo[5,1-c][1,4]oxazine], the IC50 on human CSNK1D was 0.018 µM; in experiment [1] it was 0.002 µM.

`Cc1cc(-c2c(-c3ccc(F)cc3)nn3c2OC[C@H](C)C3)c2cn[nH]c2n1` (single isomer, unassigned) [Example 194, (*R)-2-(4-Fluorophenyl)-6-methyl-3-(6-methyl-1H-pyrazolo[3,4-b]pyridin-4-yl)-6,7-dihydro-5H-pyrazolo[5,1-b][1,3]oxazine]: the IC50 is 0.011 µM at human CSNK1D and 0.001 µM in experiment [1].

In the case of `[2H]C([2H])([2H])[C@@]1(C(F)(F)F)Cn2nc(-c3ccc(F)cn3)c(-c3ccnc4[nH]ncc34)c2CO1` (single isomer, unassigned) [Example 424, (*S)-2-(5-Fluoropyridin-2-yl)-6-(methyl-d3)-3-(1H-pyrazolo[3,4-b]pyridin-4-yl)-6-(trifluoromethyl)-6,7-dihydro-4H-pyrazolo[5,1-c][1,4]oxazine], the 50% inhibitory concentration (IC50) at human CSNK1D is 0.04 µM; in experiment [1], 0.004 µM.

As for `Fc1ccc(-c2nn3c(c2-c2ccnc4[nH]ncc24)COC(C(F)(F)F)C3)nc1` (centres unmarked) [Example 102, 2-(5-Fluoropyridin-2-yl)-3-(1H-pyrazolo[3,4-b]pyridin-4-yl)-6-(trifluoromethyl)-6,7-dihydro-4H-pyrazolo[5,1-c][1,4]oxazine], the IC50 on human CSNK1D is 0.844 µM; in experiment [1], 0.039 µM.

For `CC(=O)Nc1cc(-c2c(-c3ccc(F)cn3)nn3c2OCCC3)ccn1` [Example 183, N-(4-(2-(5-Fluoropyridin-2-yl)-6,7-dihydro-5H-pyrazolo[5,1-b][1,3]oxazin-3-yl)pyridin-2-yl)acetamide], the values for the IC50 (at human CSNK1D; in experiment [1]) were 0.22 µM and 0.007 µM, respectively.

As for `Cc1cc(-c2c(-c3ccc(F)cn3)nn3c2CO[C@@H](C)C3)c2cn[nH]c2n1` (single isomer, unassigned) [Example 89], the values for the IC50 (on human CSNK1D; in experiment [1]) were 0.275 µM and 0.009 µM, respectively.

Consider `C[C@H]1n2nc(-c3ccc(F)cn3)c(-c3ccnc4[nH]ncc34)c2COC1(C)C` (single isomer, unassigned) [Example 173, (*R)-2-(5-Fluoropyridin-2-yl)-6,6,7-trimethyl-3-(1H-pyrazolo[3,4-b]pyridin-4-yl)-6,7-dihydro-4H-pyrazolo[5,1-c][1,4]oxazine], for which the IC50 stood at 0.84 µM at human CSNK1D and 0.042 µM in experiment [1].

In the case of `Cc1nc2[nH]nc(C)c2c(-c2c(-c3ccc(F)cn3)nn3c2CC[C@@H]2C[C@@H]23)c1F` (single isomer, unassigned) [Example 346, (5a*R,6a*S)-3-(5-Fluoro-3,6-dimethyl-1H-pyrazolo[3,4-b]pyridin-4-yl)-2-(5-fluoropyridin-2-yl)-5,5a,6,6a-tetrahydro-4H-cyclopropa[e]pyrazolo[1,5-a]pyridine], the IC50 at human CSNK1D was 0.173 µM; in experiment [1], 0.025 µM.

For the compound `Cc1nc2[nH]ncc2c(-c2c(-c3ccc(F)cn3)nn3c2OCC2(CC2)C3)c1F` [Example 463, 3′-(5-Fluoro-6-methyl-1H-pyrazolo[3,4-b]pyridin-4-yl)-2′-(5-fluoropyridin-2-yl)-5′H,7′H-spiro[cyclopropane-1,6′-pyrazolo[5,1-b][1,3]oxazine]], the IC50 is 0.02 µM on human CSNK1D and 0.002 µM in experiment [1].

Regarding `Fc1ccc(-c2nn3c(c2-c2ccnc4[nH]ncc24)CC[C@H]2[C@@H]3C2(F)F)cc1` (stereo in doubt) [Example 355, (5a*S,6a*R)-6,6-Difluoro-2-(4-fluorophenyl)-3-(1H-pyrazolo[3,4-b]pyridin-4-yl)-5,5a,6,6a-tetrahydro-4H-cyclopropa[e]pyrazolo[1,5-a]pyridine], the IC50 came to 0.027 µM at human CSNK1D and 0.009 µM in experiment [1].

In the case of `Fc1ccc(-c2nn3c(c2-c2ccnc4[nH]ncc24)C[C@@H](F)C3)cc1` [Example 228, 4-[(5R)-5-Fluoro-2-(4-fluorophenyl)-5,6-dihydro-4H-pyrrolo[1,2-b]pyrazol-3-yl]-1H-pyrazolo[3,4-b]pyridine], the figures for the IC50 (at human CSNK1D; in experiment [1]) were 0.079 µM and 0.007 µM, respectively.

Take `CC1n2nc(-c3ccc(F)cn3)c(-c3ccnc4[nH]ncc34)c2COC1(C)C` (single isomer, unassigned) [Example 174, (*S)-2-(5-Fluoropyridin-2-yl)-6,6,7-trimethyl-3-(1H-pyrazolo[3,4-b]pyridin-4-yl)-6,7-dihydro-4H-pyrazolo[5,1-c][1,4]oxazine]: the IC50 on human CSNK1D was determined as 0.114 µM; in experiment [1], 0.008 µM.

Consider `CC1(C)Cn2nc(-c3c(F)cncc3F)c(-c3ccnc4[nH]ncc34)c2CO1` [Example 165, 2-(3,5-Difluoropyridin-4-yl)-6,6-dimethyl-3-(1H-pyrazolo[3,4-b]pyridin-4-yl)-6,7-dihydro-4H-pyrazolo[5,1-c][1,4]oxazine], for which the IC50 at human CSNK1D amounted to 0.702 µM; in experiment [1], 0.015 µM.

As for `CC1(C)COCc2c(-c3ccnc4[nH]ncc34)c(-c3ccc(F)cn3)nn21` [Example 122, 2-(5-Fluoro-2-pyridyl)-7,7-dimethyl-3-(1H-pyrazolo[3,4-b]pyridin-4-yl)-4,6-dihydropyrazolo[5,1-c][1,4]oxazine], the IC50 at human CSNK1D amounted to 3.41 µM; in experiment [1], 0.12 µM.

Regarding `COCCC1(C)CCc2c(-c3ccnc4[nH]ncc34)c(-c3ccc(F)cn3)nn2C1` (single isomer, unassigned) [Example 318, (*S)-4-[2-(5-Fluoro-2-pyridyl)-6-(2-methoxyethyl)-6-methyl-5,7-dihydro-4H-pyrazolo[1,5-a]pyridin-3-yl]-1H-pyrazolo[3,4-b]pyridine], the results for the IC50 (at human CSNK1D; in experiment [1]) were 0.04 µM and 0.003 µM, respectively.

On to `Cc1nc2[nH]ncc2c(-c2c(-c3ccc(F)cn3)nn3c2CC2(C3)CC2(F)F)c1F` (single isomer, unassigned) [Example 263, (*R)-1′.1′-Difluoro-3-(5-fluoro-6-methyl-1H-pyrazolo[3,4-b]pyridin-4-yl)-2-(5-fluoro-2-pyridyl)spiro[4,6-dihydropyrrolo[1,2-b]pyrazole-5,2′-cyclopropane]], for which the IC50 on human CSNK1D stood at 1.46 µM; in experiment [1], 0.054 µM.

Consider `C[C@@]1(C(F)(F)F)Cn2nc(-c3ccc(F)cn3)c(-c3ccn4nccc4c3)c2CO1` (single isomer, unassigned) [Example 415, (*S)-2-(5-Fluoropyridin-2-yl)-6-methyl-3-(pyrazolo[1,5-a]pyridin-5-yl)-6-(trifluoromethyl)-6,7-dihydro-4H-pyrazolo[5,1-c][1,4]oxazine], for which the IC50 on human CSNK1D worked out at 3.89 µM; in experiment [1], 0.264 µM.

Turning to `Fc1ccc(-c2nn3c(c2-c2ccnc4[nH]ncc24)C2CCC3CC2)cc1` [Example 64, 2-(4-Fluorophenyl)-3-(1H-pyrazolo[3,4-b]pyridin-4-yl)-4,5,6,7-tetrahydro-4,7-ethanopyrazolo[1,5-a]pyridine], the IC50 on human CSNK1D was 0.012 µM; in experiment [1], 0.001 µM.

For `[2H]C([2H])([2H])C1(C([2H])([2H])[2H])Cn2nc(-c3ccc(F)cn3)c(-c3c(F)c(C)nc4[nH]nc(C)c34)c2CO1` [Example 409, 3-(5-Fluoro-3,6-dimethyl-1H-pyrazolo[3,4-b]pyridin-4-yl)-2-(5-fluoropyridin-2-yl)-6,6-bis(methyl-d3)-6,7-dihydro-4H-pyrazolo[5,1-c][1,4]oxazine], the IC50 is 0.069 µM on human CSNK1D and 0.012 µM in experiment [1].

`CC1(C)Cn2nc(-c3ccc(F)cn3)c(-c3ccncc3)c2CO1` [Example 128, 2-(5-Fluoropyridin-2-yl)-6,6-dimethyl-3-(pyridin-4-yl)-6,7-dihydro-4H-pyrazolo[5,1-c][1,4]oxazine]: the IC50 was 0.244 µM at human CSNK1D and 0.013 µM in experiment [1].
